In PubChem BioAssay AID220 (DTP/NCI, 2004):
Values joined by “and” are separate entries in the source; they are usually repeats but may differ in a detail not shown here. Identical values can stand only once. Records with an inconclusive call do not appear.

System: CD8F1 mice, subcutaneous mammary adenocarcinoma, T/C%
Experiment: NCI In Vivo Anticancer Drug Screen. Data for tumor model Mammary Adenocarcinoma CD8F1 (subcutaneous) in CD8F1
Conditions: higher = larger tumour
Experimental: The antitumor activity of compounds was measured in mice bearing transplantable tumors. Survival or tumor size were measured and the results are expressed as the measurement made in the treated group (T) divided by the measurement made in the vehicle treated control group (C). The tumor model used in this assay is Mammary Adenocarcinoma CD8F1 (subcutaneous) in CD8F1

[1] = endpoint: median tumor weight change, dose: 62.5 mg/kg/injection, schedule: Q01DX001 (ip), vehicle: saline with Tween-80
[2] = endpoint: median tumor weight change, dose: 125.0 mg/kg/injection, schedule: Q01DX001 (ip), vehicle: saline with Tween-80
[3] = endpoint: median tumor weight (est.), dose: 12.5 mg/kg/injection, schedule: Q07DX005 (ip), vehicle: saline with Tween-80
[4] = endpoint: median tumor weight (est.), dose: 50.0 mg/kg/injection, schedule: Q07DX005 (ip), vehicle: saline with Tween-80
[5] = endpoint: median tumor weight (est.), dose: 400.0 mg/kg/injection, schedule: Q07DX005 (ip), vehicle: saline with Tween-80
[6] = endpoint: median tumor weight change, dose: 31.25 mg/kg/injection, schedule: Q01DX001 (ip), vehicle: saline with Tween-80
[7] = endpoint: median tumor weight (est.), dose: 25.0 mg/kg/injection, schedule: Q07DX005 (ip), vehicle: saline with Tween-80
[8] = endpoint: median tumor weight (est.), dose: 200.0 mg/kg/injection, schedule: Q07DX005 (ip), vehicle: saline with Tween-80
[9] = endpoint: median tumor weight (est.), dose: 100.0 mg/kg/injection, schedule: Q07DX005 (ip), vehicle: saline with Tween-80

Cc1c(N)nc([C@H](CC(N)=O)NC[C@H](N)C(N)=O)nc1C(=O)N[C@H](C(=O)N[C@H](C)[C@@H](O)CC(=O)N[C@H](C(=O)NC(O[C@@H]1O[C@@H](C)[C@@H](N)[C@@H](O)[C@H]1O)C(O)c1nc(-c2nc(C(=O)NCCCCN)cs2)cs1)[C@@H](C)O)[C@@H](O[C@@H]1O[C@@H](CO)[C@@H](O)[C@H](O)[C@@H]1O[C@H]1O[C@H](CO)[C@@H](O)[C@H](OC(N)=O)[C@@H]1O)c1c[nH]cn1 (some centres undefined)
T/C (endpoint: median tumor weight (est.), dose: 1.0 mg/kg/injection, schedule: Q07DX005 (ip), vehicle: saline): 55 % of control
T/C (endpoint: median tumor weight (est.), dose: 2.0 mg/kg/injection, schedule: Q07DX005 (ip), vehicle: saline): 14 % of control and 26 % of control
T/C (endpoint: median tumor weight (est.), dose: 4.0 mg/kg/injection, schedule: Q07DX005 (ip), vehicle: saline): 18 % of control and 19 % of control
T/C (endpoint: median tumor weight (est.), dose: 8.0 mg/kg/injection, schedule: Q07DX005 (ip), vehicle: saline): 5 % of control
T/C (endpoint: median tumor weight (est.), dose: 16.0 mg/kg/injection, schedule: Q07DX005 (ip), vehicle: saline): 5 % of control
T/C (endpoint: median tumor weight (est.), dose: 32.0 mg/kg/injection, schedule: Q07DX005 (ip), vehicle: saline): 5 % of control
T/C (endpoint: median tumor weight change, dose: 4.0 mg/kg/injection, schedule: Q01DX001 (ip), vehicle: saline): 98 % of control
T/C (endpoint: median tumor weight change, dose: 8.0 mg/kg/injection, schedule: Q01DX001 (ip), vehicle: saline): 55 % of control
T/C (endpoint: median tumor weight change, dose: 16.0 mg/kg/injection, schedule: Q01DX001 (ip), vehicle: saline): 104 % of control
T/C (endpoint: median tumor weight change, dose: 32.0 mg/kg/injection, schedule: Q01DX001 (ip), vehicle: saline): 52 % of control

COc1ccc2c(c1[N+](=O)[O-])CC[C@@H]1[C@@H]2CC[C@]2(C)C(=O)CC[C@@H]12
T/C [1]: 90 % of control
T/C (endpoint: median tumor weight change, dose: 250.0 mg/kg/injection, schedule: Q01DX001 (ip), vehicle: saline with Tween-80): 84 % of control
T/C (endpoint: median tumor weight change, dose: 500.0 mg/kg/injection, schedule: Q01DX001 (ip), vehicle: saline with Tween-80): 100 % of control

C=C1N(C)c2ccccc2C1(C)C
T/C [2]: 115 % of control

O=C(Nc1nncs1)c1cccs1
T/C [2]: 92 % of control and 100 % of control

CCCC(=O)Oc1ccc(/C=N/NC(N)=S)nc1
T/C [3]: 279 % of control and 100 % of control
T/C [4]: 83 % of control and 101 % of control
T/C [5]: 121 % of control

O/N=C/c1ccccc1O.O/N=C/c1ccccc1O.[Cu]
T/C [6]: 90 % of control
T/C [1]: 59 % of control

C[C@]12CCC(=O)C=C1CC[C@@H]1[C@@H]2C(=O)C[C@@]2(C)[C@H]1CC[C@]2(O)C(=O)CO
T/C (endpoint: median tumor weight (est.), dose: 2.0 mg/kg/injection, schedule: Q07DX005 (ip), vehicle: Klucel (hydroxypropylcellulose) (HPC)): 68 % of control
T/C (endpoint: median tumor weight (est.), dose: 4.0 mg/kg/injection, schedule: Q07DX005 (ip), vehicle: Klucel (hydroxypropylcellulose) (HPC)): 91 % of control
T/C (endpoint: median tumor weight (est.), dose: 8.0 mg/kg/injection, schedule: Q07DX005 (ip), vehicle: Klucel (hydroxypropylcellulose) (HPC)): 97 % of control
T/C (endpoint: median tumor weight (est.), dose: 16.0 mg/kg/injection, schedule: Q07DX005 (ip), vehicle: Klucel (hydroxypropylcellulose) (HPC)): 71 % of control
T/C (endpoint: median tumor weight (est.), dose: 25.0 mg/kg/injection, schedule: Q07DX005 (ip), vehicle: Klucel (hydroxypropylcellulose) (HPC)): 80 % of control
T/C (endpoint: median tumor weight (est.), dose: 50.0 mg/kg/injection, schedule: Q07DX005 (ip), vehicle: Klucel (hydroxypropylcellulose) (HPC)): 67 % of control
T/C (endpoint: median tumor weight (est.), dose: 200.0 mg/kg/injection, schedule: Q07DX005 (ip), vehicle: Klucel (hydroxypropylcellulose) (HPC)): 35 % of control and 58 % of control
T/C (endpoint: median tumor weight change, dose: 500.0 mg/kg/injection, schedule: Q01DX001 (ip), vehicle: Klucel (hydroxypropylcellulose) (HPC)): 46 % of control and 64 % of control
T/C (endpoint: median tumor weight change, dose: 1000.0 mg/kg/injection, schedule: Q01DX001 (ip), vehicle: Klucel (hydroxypropylcellulose) (HPC)): 33 % of control and 49 % of control
T/C (endpoint: median tumor weight change, dose: 2000.0 mg/kg/injection, schedule: Q01DX001 (ip), vehicle: Klucel (hydroxypropylcellulose) (HPC)): 24 % of control and 44 % of control
T/C (endpoint: median tumor weight change, dose: 4000.0 mg/kg/injection, schedule: Q01DX001 (ip), vehicle: Klucel (hydroxypropylcellulose) (HPC)): -18 % of control

O=C(O)CP(=O)(O)O
T/C (endpoint: median tumor weight (est.), dose: 100.0 mg/kg/injection, schedule: Q07DX005 (ip), vehicle: saline): 90 % of control
T/C (endpoint: median tumor weight (est.), dose: 200.0 mg/kg/injection, schedule: Q07DX005 (ip), vehicle: saline): 97 % of control
T/C (endpoint: median tumor weight (est.), dose: 400.0 mg/kg/injection, schedule: Q07DX005 (ip), vehicle: saline): 57 % of control
T/C (endpoint: median tumor weight (est.), dose: 800.0 mg/kg/injection, schedule: Q07DX005 (ip), vehicle: saline): 79 % of control

C[Si](C)(C)n1nnn(-c2ccccc2)c1=O
T/C (endpoint: mean tumor weight, dose: 25.0 mg/kg/injection, schedule: Q07DX006 (ip), vehicle: saline with Tween-80): 100 % of control
T/C (endpoint: mean tumor weight, dose: 50.0 mg/kg/injection, schedule: Q07DX006 (ip), vehicle: saline with Tween-80): 164 % of control
T/C (endpoint: mean tumor weight, dose: 400.0 mg/kg/injection, schedule: Q07DX006 (ip), vehicle: saline with Tween-80): 102 % of control
T/C [3]: 79 % of control
T/C [7]: 65 % of control
T/C [4]: 97 % of control
T/C [8]: 77 % of control
T/C [5]: 87 % of control

O=CC(O)C(O)C(O)C(O)CO (centres undefined)
T/C (endpoint: median tumor weight change, dose: 75.0 mg/kg/injection, schedule: Q01DX001 (ip), vehicle: saline): 66 % of control
T/C (endpoint: median tumor weight change, dose: 150.0 mg/kg/injection, schedule: Q01DX001 (ip), vehicle: saline): 43 % of control
T/C (endpoint: median tumor weight change, dose: 300.0 mg/kg/injection, schedule: Q01DX001 (ip), vehicle: saline): 61 % of control
T/C (endpoint: median tumor weight change, dose: 600.0 mg/kg/injection, schedule: Q01DX001 (ip), vehicle: saline): 35 % of control
T/C (endpoint: median tumor weight change, dose: 1200.0 mg/kg/injection, schedule: Q01DX001 (ip), vehicle: saline): 55 % of control

Cc1cn(C2CC(O)C(CO)O2)c(=O)[nH]c1=O (centres undefined)
T/C (endpoint: median tumor weight (est.), dose: 25.0 mg/kg/injection, schedule: Q07DX005 (ip), vehicle: saline): 88 % of control
T/C (endpoint: median tumor weight (est.), dose: 50.0 mg/kg/injection, schedule: Q07DX005 (ip), vehicle: saline): 107 % of control

c1ccc2c(c1)[As]=c1ccccc1=[As]2 (centres undefined)
T/C (endpoint: median tumor weight change, dose: 60.0 mg/kg/injection, schedule: Q01DX001 (ip), vehicle: saline with Tween-80): 159 % of control
T/C (endpoint: median tumor weight change, dose: 120.0 mg/kg/injection, schedule: Q01DX001 (ip), vehicle: saline with Tween-80): 158 % of control
T/C (endpoint: median tumor weight change, dose: 240.0 mg/kg/injection, schedule: Q01DX001 (ip), vehicle: saline with Tween-80): 31 % of control

O=c1c(O)c(-c2ccc(O)c(O)c2)oc2cc(O)cc(O)c12
T/C (endpoint: median tumor weight (est.), dose: 25.0 mg/kg/injection, schedule: Q07DX005 (ip), vehicle: other): 52 % of control
T/C (endpoint: median tumor weight (est.), dose: 50.0 mg/kg/injection, schedule: Q07DX005 (ip), vehicle: other): 114 % of control
T/C (endpoint: median tumor weight (est.), dose: 100.0 mg/kg/injection, schedule: Q07DX005 (ip), vehicle: other): 98 % of control
T/C (endpoint: median tumor weight (est.), dose: 400.0 mg/kg/injection, schedule: Q07DX005 (ip), vehicle: other): 49 % of control

O=C(NC1CCCCC1)OCc1c(COC(=O)NC2CCCCC2)c(-c2ccc(Cl)c(Cl)c2)n2c1CCC2
T/C [7]: 94 % of control
T/C [4]: 72 % of control
T/C [9]: 20 % of control
T/C [8]: 28 % of control

NC(Cc1ccc(N(CCCl)Cc2ccccc2)cc1)C(=O)O (centres undefined)
T/C (endpoint: median tumor weight (est.), dose: 6.25 mg/kg/injection, schedule: Q07DX005 (ip), vehicle: distilled water + Tween-80): 84 % of control
T/C (endpoint: median tumor weight (est.), dose: 12.5 mg/kg/injection, schedule: Q07DX005 (ip), vehicle: distilled water + Tween-80): 60 % of control
T/C (endpoint: median tumor weight (est.), dose: 25.0 mg/kg/injection, schedule: Q07DX005 (ip), vehicle: distilled water + Tween-80): 79 % of control
T/C (endpoint: median tumor weight (est.), dose: 50.0 mg/kg/injection, schedule: Q07DX005 (ip), vehicle: distilled water + Tween-80): 25 % of control

CNC(=O)n1c(N)nc(-c2ccccc2)c1-c1ccccc1
T/C [6]: 93 % of control
T/C [1]: 92 % of control
T/C [2]: 79 % of control

NC(=S)N/N=C/c1ccc(OC(=O)COc2ccc(Cl)cc2)cn1
T/C (endpoint: mean tumor weight, dose: 25.0 mg/kg/injection, schedule: Q07DX008 (ip), vehicle: saline): 100 % of control
T/C (endpoint: mean tumor weight, dose: 50.0 mg/kg/injection, schedule: Q07DX008 (ip), vehicle: saline): 50 % of control
T/C (endpoint: mean tumor weight, dose: 100.0 mg/kg/injection, schedule: Q07DX008 (ip), vehicle: saline): 64 % of control
T/C (endpoint: mean tumor weight, dose: 200.0 mg/kg/injection, schedule: Q07DX008 (ip), vehicle: saline): 60 % of control
T/C (endpoint: mean tumor weight, dose: 400.0 mg/kg/injection, schedule: Q07DX008 (ip), vehicle: saline): 105 % of control
T/C [3]: 52 % of control
T/C [7]: 167 % of control
T/C [4]: 79 % of control
T/C [9]: 114 % of control
T/C [8]: 82 % of control
T/C [5]: 119 % of control
